According to ChEMBL document CHEMBL5137058, “Therapeutic Strategies to Target the Androgen Receptor” (J Med Chem, 2022):

How the values were obtained:
[1] = target: T1, Androgen receptor (Homo sapiens) (UniProt P10275); test: Displacement of [3H]DHT from Androgen receptor (unknown origin) relative to control; details: filed as antagonist
T1 sequence (whole entry): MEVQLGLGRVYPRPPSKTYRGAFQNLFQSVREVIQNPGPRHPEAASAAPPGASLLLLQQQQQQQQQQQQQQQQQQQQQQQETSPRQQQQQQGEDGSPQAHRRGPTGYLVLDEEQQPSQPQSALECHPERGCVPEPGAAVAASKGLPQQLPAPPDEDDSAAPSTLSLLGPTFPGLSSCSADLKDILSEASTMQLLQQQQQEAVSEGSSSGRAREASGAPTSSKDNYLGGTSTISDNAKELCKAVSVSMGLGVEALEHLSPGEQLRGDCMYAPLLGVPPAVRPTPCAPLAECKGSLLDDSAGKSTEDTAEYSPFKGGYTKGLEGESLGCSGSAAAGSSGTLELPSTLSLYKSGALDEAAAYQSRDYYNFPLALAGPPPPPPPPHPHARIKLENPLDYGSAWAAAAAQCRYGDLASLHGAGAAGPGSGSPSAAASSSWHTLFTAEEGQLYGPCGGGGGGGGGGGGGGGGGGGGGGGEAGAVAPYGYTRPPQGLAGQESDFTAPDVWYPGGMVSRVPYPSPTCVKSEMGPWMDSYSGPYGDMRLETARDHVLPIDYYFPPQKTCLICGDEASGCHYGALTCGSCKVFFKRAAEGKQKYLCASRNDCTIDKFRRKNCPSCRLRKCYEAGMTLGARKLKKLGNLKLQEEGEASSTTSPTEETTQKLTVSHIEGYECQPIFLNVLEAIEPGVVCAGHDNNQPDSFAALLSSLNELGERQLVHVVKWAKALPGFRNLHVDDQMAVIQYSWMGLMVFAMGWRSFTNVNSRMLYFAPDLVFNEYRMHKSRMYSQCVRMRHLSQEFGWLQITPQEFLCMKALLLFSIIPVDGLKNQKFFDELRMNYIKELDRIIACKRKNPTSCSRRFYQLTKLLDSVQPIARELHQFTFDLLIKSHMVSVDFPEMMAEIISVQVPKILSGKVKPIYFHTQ

Androgen receptor [2] = target: T2, Androgen receptor (Homo sapiens, UniProt P10275); test: Antagonist activity at Androgen receptor (unknown origin) in African green monkey COS-1 cells; type: cell-based
T2 sequence (P10275 whole entry): T1 sequence (whole entry)

Androgen receptor [3] = target: T2, Androgen receptor; test: Antagonist activity at Androgen receptor in human LNCaP cells assessed as inhibition of Binding Function 3 (BF3) of AR measured by luciferase assay; type: cell-based
SC-3 = test: Antiproliferative activity against mouse SC-3 cells; type: functional, cell-based
LNCaP [4] = test: Antiproliferative activity against human LNCaP cells expressing Androgen receptor […] mutant; type: functional, cell-based
CWR22R = test: Antiproliferative activity against human 22Rv1 cells expressing Androgen receptor H874Y mutant; type: functional, cell-based
PC-3 = test: Antiproliferative activity against androgen-independent human PC-3 cells; type: functional, cell-based
Androgen receptor [5] = target: T2, Androgen receptor
Description: Antagonist activity at Androgen receptor in human LNCaP cells assessed as inhibition of PSA expression

[6] = Antiproliferative activity against androgen-sensitive mouse SEM-107 cells; type: functional, cell-based
T47D = test: Antiproliferative activity against human T47D cells; type: functional, cell-based
[7] = target: Protein cereblon/Androgen receptor (Homo sapiens, UniProt P10275+Q96SW2); test: Protac activity at CRBN/Androgen receptor in human LNCaP cells assessed as Androgen receptor degradation; type: cell-based
Protein cereblon/Androgen receptor, sequence (Q96SW2 whole entry, one chain of several): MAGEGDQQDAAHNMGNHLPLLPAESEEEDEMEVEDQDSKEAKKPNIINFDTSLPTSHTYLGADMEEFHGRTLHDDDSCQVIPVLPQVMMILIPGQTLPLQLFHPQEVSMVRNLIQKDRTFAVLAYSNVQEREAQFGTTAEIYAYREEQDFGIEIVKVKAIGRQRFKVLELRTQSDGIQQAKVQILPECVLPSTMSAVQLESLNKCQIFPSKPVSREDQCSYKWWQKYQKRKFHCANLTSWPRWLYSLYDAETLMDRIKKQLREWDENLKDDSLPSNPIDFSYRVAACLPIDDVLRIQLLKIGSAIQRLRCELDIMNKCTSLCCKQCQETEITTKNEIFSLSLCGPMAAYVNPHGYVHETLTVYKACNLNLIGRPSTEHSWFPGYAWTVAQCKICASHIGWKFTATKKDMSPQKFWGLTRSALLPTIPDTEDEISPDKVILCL

LNCaP [8] = test: Antiproliferative activity against human LNCaP cells; type: functional, cell-based
MR49F = test: Antiproliferative activity against human MR49F cells; type: functional, cell-based
LNCaP [9] = test: Antitumor activity against human LNCaP cells xenografted in mouse assessed as decrease in PSA level at 100 mg/kg, sc; type: functional; design: scale not given: the % may be the effect or the level left
Androgen receptor [10] = target: T2, Androgen receptor; test: Binding affinity to Androgen receptor (unknown origin)
Androgen receptor [11] = target: T2, Androgen receptor; test: Agonist activity at Androgen receptor (unknown origin) measured by androgen response element luciferase assay
[12] = In vivo agonist activity at Androgen receptor in castrated rat assessed as increase in levator ani muscle weight at 2 mg administered orally per day for 5 days; type: functional; details: route po, time 5 day
[13] = In vivo agonist activity at Androgen receptor in castrated rat assessed as increase in prostate weight at 2 mg administered orally per day for 5 days; type: functional; details: route po, time 5 day
[14] = Oral bioavailability in rat; type: ADME, organism-based; details: in vivo
Androgen receptor [15] = target: T2, Androgen receptor; test: Antagonist activity at Androgen receptor (unknown origin) assessed as downregulation of AR
Rattus norvegicus [16] = test: Anti-androgenic activity in rat assessed as decrease in seminal vesicle weight at 2.58 microM/Kg, po administered twice daily for 7 days; type: functional; design: scale not given: the % may be the effect or the level left; details: time 7 day, at 2.58 µmol/kg
LNCaP [17] = test: Antitumor activity against human LNCaP cells xenografted in mouse assessed as decrease in PSA level at 25 mg/kg, sc; type: functional; design: scale not given: the % may be the effect or the level left
Androgen receptor [18] = target: T2, Androgen receptor; test: Antagonist activity at Androgen receptor (unknown origin) assessed as inhibition of activation function 1 (AF-1) of AR N-terminal transactivation domain (NTD)
Androgen receptor [19] = target: T2, Androgen receptor; test: Displacement of [3H]DHT from Androgen receptor expressed in human MDA-MB-453 cells; type: cell-based
Androgen receptor [20] = target: T2, Androgen receptor; test: Antagonist activity at Androgen receptor in human MDA-MB-453 cells measured by SEAP reporter gene assay; type: cell-based
Rattus norvegicus [21] = test: Antagonist activity in mature male Sprague-Dawley rat assessed as decrease in seminal vesicle and prostate weight at 15 mg/kg, po administered once a day for 14 days; type: functional; design: scale not given: the % may be the effect or the level left; details: time 14 day
Androgen receptor [22] = target: Androgen receptor (Rattus norvegicus, UniProt P15207)
Androgen receptor (Rattus norvegicus, UniProt P15207), sequence (P15207 whole entry S389L): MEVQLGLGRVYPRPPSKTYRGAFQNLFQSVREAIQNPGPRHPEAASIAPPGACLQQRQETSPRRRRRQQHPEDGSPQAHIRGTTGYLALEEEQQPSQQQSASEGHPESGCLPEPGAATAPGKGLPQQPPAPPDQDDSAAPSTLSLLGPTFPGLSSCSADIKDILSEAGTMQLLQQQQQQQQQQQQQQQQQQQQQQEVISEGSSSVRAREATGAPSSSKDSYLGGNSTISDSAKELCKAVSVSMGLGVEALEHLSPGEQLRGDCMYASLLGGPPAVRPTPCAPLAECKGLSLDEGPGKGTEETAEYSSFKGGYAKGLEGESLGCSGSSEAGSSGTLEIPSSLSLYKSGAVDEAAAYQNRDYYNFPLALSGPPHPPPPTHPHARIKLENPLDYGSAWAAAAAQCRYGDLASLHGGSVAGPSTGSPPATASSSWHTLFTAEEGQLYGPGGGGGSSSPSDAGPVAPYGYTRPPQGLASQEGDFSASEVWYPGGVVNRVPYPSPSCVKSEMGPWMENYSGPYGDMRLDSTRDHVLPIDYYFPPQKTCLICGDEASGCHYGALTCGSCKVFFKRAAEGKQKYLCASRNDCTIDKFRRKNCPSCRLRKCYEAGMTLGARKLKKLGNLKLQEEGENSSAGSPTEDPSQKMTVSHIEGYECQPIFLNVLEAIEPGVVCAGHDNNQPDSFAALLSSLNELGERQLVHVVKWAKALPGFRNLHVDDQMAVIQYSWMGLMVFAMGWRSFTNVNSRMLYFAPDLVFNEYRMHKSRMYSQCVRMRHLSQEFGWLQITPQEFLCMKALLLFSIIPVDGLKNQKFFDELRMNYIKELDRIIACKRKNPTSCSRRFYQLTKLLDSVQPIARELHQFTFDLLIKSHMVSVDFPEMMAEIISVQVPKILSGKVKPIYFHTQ
Description: Binding affinity to rat Androgen receptor ligand binding domain measured by competitive ligand binding assay

[23] = Oral bioavailability in dog; type: ADME, organism-based, Canis lupus familiaris; details: in vivo

N#Cc1ccc(C2=NO[C@H]3CCCC[C@@H]23)cc1C(F)(F)F
Activity [1]: 99.2%
IC50 (Androgen receptor [2]): 27.5 nM

CCS(=O)(=O)Nc1cccc(-c2cc(=O)n(-c3ccc(Cl)c(Cl)c3)nc2C)c1
IC50 (Androgen receptor [3]): 6260 nM

COc1cccc(C(=O)Nc2ccc(Oc3ccc(O)cc3)c(C)c2)c1
IC50 (SC-3): 750 nM
IC50 (LNCaP [4]): 43 nM
IC50 (CWR22R): 220 nM
IC50 (PC-3): > 10000 nM

NS(=O)(=O)c1cccc2cc(SCCOc3ccccc3)[nH]c12
IC50 (Androgen receptor [5]): 530 nM

CC(C)(O)C(=O)Nc1ccc([N+](=O)[O-])c(C(F)(F)F)c1 [HYDROXYFLUTAMIDE]
IC50 [6]: 84 nM
IC50 (T47D): 45 nM

C[C@](O)(COc1ccc(OCCOCCOc2cccc3c2C(=O)N(C2CCC(=O)NC2=O)C3=O)cc1)C(=O)Nc1ccc(I)c(C#N)c1 (stereo not given in full)
DC50 [7]: 5200 nM

Brc1ncn(-c2csc(N3CCOCC3)n2)c1Br
IC50 (LNCaP [8]): < 500 nM
IC50 (MR49F): < 500 nM

CC1(C)[C@H](NC(=O)c2cnn(CCO)c2)C(C)(C)[C@H]1Oc1ccc(C#N)c(Cl)c1
Activity (LNCaP [9]): >90%

C[C@](O)(CCOc1ccc(F)cc1)C(=O)N1CCc2c(C#N)cccc21
IC50 (Androgen receptor [10]; read-out: IC50): 12.7 nM
EC50 (Androgen receptor [11]): 2.5 nM

C[C@@]12CC(C(F)(F)F)=NN1C(=O)N(c1ccc(C#N)c(C(F)(F)F)c1)C2=O
Activity [12]: 75%
Activity [13]: 11%

N#Cc1ccc(CN2CCN(c3ccc4nnc(C(F)(F)F)n4n3)CC2)cc1
IC50 (Androgen receptor [10]; read-out: pIC50 (converted)): > 79400 nM
bioavailability [14]: 100%
IC50 (Androgen receptor [15]): > 1580 nM
Activity (Rattus norvegicus [16]): 80%

Cc1nc(O[C@H]2C(C)(C)[C@H](NC(=O)c3cnc4ncccn34)C2(C)C)ccc1C#N
Activity (LNCaP [17]): >90%

CC(=O)OC[C@H](COc1ccc(C(C)(C)c2ccc(OC[C@@H](CCl)OC(C)=O)cc2)cc1)OC(C)=O [RALANITEN ACETATE]
IC50 (Androgen receptor [18]): 9600 nM

CNC(=O)[C@]12C(=O)N(c3ccc(C#N)c(C(F)(F)F)c3)C(=O)[C@H]1[C@H]1C[C@H](F)[C@@H]2C1
Ki (Androgen receptor [19]): 8 nM
IC50 (Androgen receptor [20]): 91 nM
Activity (Rattus norvegicus [21]): 35%

C[C@](O)(Cn1ccc2cc(F)ccc21)C(=O)Nc1ccc(C#N)c(C(F)(F)F)c1
Ki (Androgen receptor [22]): > 10000 nM

CC(=O)N1CCN(CCOc2ccc(C3CCN(C4=Nn5c(nnc5C(F)(F)F)CC4)CC3)cc2)CC1 [AZD3514]
IC50 (Androgen receptor [15]): > 1780 nM
bioavailability [23]: 75%
